Laboratory results from ChEMBL document CHEMBL4825758, “Discovery of G Protein-Biased Antagonists against 5-HT7R” (J Med Chem, 2021).

Experiment: Metabolic stability in human liver microsomes assessed as parent compound remaining at 1 uM preincubated for 5 mins followed by NADPH regeneration system addition and measured after 30 mins by LC-MS analysis
Assay type: ADME, Microsome
Settings: time 35 min, read-out: Stabilty

## Clc1cccc(-c2n[nH]cc2N2CCCNCC2)c1
  remaining at 0.5 h, 1 µM: 27.5%
